Results published in article PMC11676667, “Pharmacokinetics of Oral Cannabinoid Δ8-Tetrahydrocannabivarin and Its Main Metabolites in Healthy Participants” (Pharmaceuticals, 2024).

Assay: Plasma pharmacokinetics after single oral dose of Δ8-THCV in MCT oil (LC-MS/MS, non-compartmental analysis)
Type: in vivo, human
Parameters: Clast (last quantifiable concentration): unit not given here
Conditions: for Clast (last quantifiable concentration) / tlast (time to last quantifiable concentration) / concentration at 0.5 h / concentration at 1 h / concentration at 2 h / concentration at 4 h / concentration at 6 h / concentration at 8 h: plasma; for plasma concentration: Predose; for concentration at 0.5 h / concentration at 1 h / concentration at 2 h / concentration at 4 h / concentration at 6 h / concentration at 8 h: human, oral
Protocol: The study was a two-phase, dose-ranging, placebo-controlled trial in 21 healthy participants to assess the safety, tolerability, PK, and PD of an oral formulation of Δ8-THCV. A detailed description of the study was published elsewhere. The study product was a medium-chain triglyceride (MCT) oil oral formulation of Δ8-THCV at a concentration of 50 mg/mL. […] MCT oil was used as placebo.
Twenty-one participants were enrolled in the clinical study and plasma samples from 15 participants were sent to our laboratory for pharmacokinetic evaluation. Of these, 3 participants were enrolled in Phase 1, an unblinded, placebo-controlled, single ascending dose design and 12 were enrolled in Phase 2, a double-blind, randomized, placebo-controlled, within-participant crossover design. At each study session, participants received one of the following oral doses: placebo, 12.5 mg, 25 mg, 50 mg, 100 mg, and 200 mg of the aforementioned Δ8-THCV formulation in MCT. Study visits were separated by a washout period of a minimum of one week and maximum of 28 days. Participants entered the research facility the night before the session and received the study product in the morning after a standardized high-fat, high-calorie breakfast. PK blood samples included in this analysis were collected prior to dosing and 0.5, 1, 2, 4, 6, and 8 h after dose. Immediately following collection into K2EDTA tubes, blood samples were placed on wet ice, centrifuged, and plasma was immediately frozen at −80 °C until shipment to the bioanalytical laboratory (iC42 Clinical Research and Development, University of Colorado, Aurora, CO, USA) on dry ice.
Plasma samples were analyzed using a validated high-performance liquid chromatography–tandem mass spectrometry (LC-MS/MS) assay. The assay included Δ8-THCV and its main metabolites 11-OH-Δ8-THCV and Δ8-THCV-COOH, Δ9-THCV and its main metabolite Δ9-THCV-COOH, and Δ9-THC and Δ8-THC as well as their main metabolites (Figure 3). The complete list of analyzed compounds and a summary of the key performance parameters of the assay are presented in Appendix A and Table A1 and Table A2. […] For the PK analysis, concentrations below the lower limit of quantification were set to 0 ng/mL. PK parameters were calculated using non-compartmental analysis (Phoenix WinNonlin version 8.4., Certara, Princeton, NJ, USA). Statistical analysis was carried out using GraphPad Prism (version 10, Boston, MA, USA).

[1] = 12.5 mg single oral Δ8-THCV in MCT oil, Mean (±SD)
[2] = 12.5 mg single oral Δ8-THCV in MCT oil, Median (Range)
[3] = 25 mg single oral Δ8-THCV in MCT oil, Mean (±SD)
[4] = 25 mg single oral Δ8-THCV in MCT oil, Median (Range)
[5] = 50 mg single oral Δ8-THCV in MCT oil, Mean (±SD)
[6] = 50 mg single oral Δ8-THCV in MCT oil, Median (Range)
[7] = 100 mg single oral Δ8-THCV in MCT oil, Mean (±SD)
[8] = 100 mg single oral Δ8-THCV in MCT oil, Median (Range)
[9] = 200 mg single oral Δ8-THCV in MCT oil, Mean (±SD)
[10] = 200 mg single oral Δ8-THCV in MCT oil, Median (Range)
[11] = 12.5 mg, 12.5 mg Δ8-THCV dose, Mean (SD, %CV)
[12] = 12.5 mg, 12.5 mg Δ8-THCV dose, Median (IQ Range)
[13] = 25 mg, 25 mg Δ8-THCV dose, Mean (SD, %CV)
[14] = 25 mg, 25 mg Δ8-THCV dose, Median (IQ Range)
[15] = 50 mg, 50 mg Δ8-THCV dose, Mean (SD, %CV)
[16] = 50 mg, 50 mg Δ8-THCV dose, Median (IQ Range)

Q: Which results are given for `CCCc1cc(O)c2c(c1)OC(C)(C)[C@@H]1CC=C(C(=O)O)C[C@@H]21` [Δ8-THCV-COOH, 11-nor-9-carboxy-Δ8-THCV]?
A: Clast (last quantifiable concentration) [1]: 46.8 (±23); tlast (time to last quantifiable concentration) [1]: 8 (±0); Clast (last quantifiable concentration) [2]: 38.2 (20.1–102); tlast (time to last quantifiable concentration) [2]: 8 (8–8); Clast (last quantifiable concentration) [3]: 71.6 (±33.8); tlast (time to last quantifiable concentration) [3]: 8 (±0); Clast (last quantifiable concentration) [4]: 78.3 (25.5–146); tlast (time to last quantifiable concentration) [4]: 8 (8–8); Clast (last quantifiable concentration) [5]: 166 (±60.3); tlast (time to last quantifiable concentration) [5]: 8 (±0); Clast (last quantifiable concentration) [6]: 148 (78.9–264); tlast (time to last quantifiable concentration) [6]: 8 (8–8); Clast (last quantifiable concentration) [7]: 319 (±118); tlast (time to last quantifiable concentration) [7]: 8 (±0); Clast (last quantifiable concentration) [8]: 304 (153–590); tlast (time to last quantifiable concentration) [8]: 8 (8–8); Clast (last quantifiable concentration) [9]: 917 (±582); tlast (time to last quantifiable concentration) [9]: 8 (±0); Clast (last quantifiable concentration) [10]: 855 (364–2402); tlast (time to last quantifiable concentration) [10]: 8 (8–8); plasma concentration (12.5 mg Δ8-THCV dose, Mean (SD, %CV)): 0.2 (±0.4, 267) ng/mL; plasma concentration (12.5 mg Δ8-THCV dose, Median (IQ Range)): 0 (0–0) ng/mL; plasma concentration (25 mg Δ8-THCV dose, Mean (SD, %CV)): 0.3 (±1, 374) ng/mL; plasma concentration (25 mg Δ8-THCV dose, Median (IQ Range)): 0 (0–0) ng/mL; plasma concentration (50 mg Δ8-THCV dose, Mean (SD, %CV)): 0.8 (±1.6, 187) ng/mL; plasma concentration (50 mg Δ8-THCV dose, Median (IQ Range)): 0 (0–0.9) ng/mL; plasma concentration (100 mg Δ8-THCV dose, Mean (SD, %CV)): 0.5 (±0.8, 166) ng/mL; plasma concentration (100 mg Δ8-THCV dose, Median (IQ Range)): 0 (0–1) ng/mL; plasma concentration (200 mg Δ8-THCV dose, Mean (SD, %CV)): 0.1 (±0.3, 387) ng/mL; plasma concentration (200 mg Δ8-THCV dose, Median (IQ Range)): 0 (0–0) ng/mL; median AUClast ratio Δ8-THCV-COOH/Δ8-THCV/11-OH-Δ8-THCV (after the 200 mg dose, Δ8-THCV = 1): 36; concentration at 0.5 h [11]: 0.4 ng/mL; concentration at 0.5 h [12]: 0 ng/mL; concentration at 1 h [11]: 15 ng/mL; concentration at 1 h [12]: 3 ng/mL; concentration at 2 h [11]: 30.1 ng/mL; concentration at 2 h [12]: 15.5 ng/mL; concentration at 4 h [11]: 84.6 ng/mL; concentration at 4 h [12]: 73.1 ng/mL; concentration at 6 h [11]: 62.2 ng/mL; concentration at 6 h [12]: 53.3 ng/mL; concentration at 8 h [11]: 46.8 ng/mL; concentration at 8 h [12]: 38.2 ng/mL; concentration at 0.5 h [13]: 2.7 ng/mL; concentration at 0.5 h [14]: 0 ng/mL; concentration at 1 h [13]: 28.5 ng/mL; concentration at 1 h [14]: 7.1 ng/mL; concentration at 2 h [13]: 54.6 ng/mL; concentration at 2 h [14]: 55.6 ng/mL; concentration at 4 h [13]: 136 ng/mL; concentration at 4 h [14]: 108 ng/mL; concentration at 6 h [13]: 96.3 ng/mL; concentration at 6 h [14]: 82.6 ng/mL; concentration at 8 h [13]: 71.6 ng/mL; concentration at 8 h [14]: 78.3 ng/mL; concentration at 0.5 h [15]: 4.7 ng/mL; concentration at 0.5 h [16]: 1.3 ng/mL; concentration at 1 h [15]: 27.3 ng/mL; concentration at 1 h [16]: 4.8 ng/mL; concentration at 2 h [15]: 84.1 ng/mL; concentration at 2 h [16]: 26.5 ng/mL; concentration at 4 h [15]: 214 ng/mL; concentration at 4 h [16]: 177 ng/mL; concentration at 6 h [15]: 233 ng/mL; concentration at 6 h [16]: 200 ng/mL; concentration at 8 h [15]: 166 ng/mL; concentration at 8 h [16]: 148 ng/mL; concentration at 0.5 h (100 mg, 100 mg Δ8-THCV dose, Mean (SD, %CV)): 13 ng/mL
